Assays:
[1] = target: T1, human progesterone receptor (hPR) (Homo sapiens, UniProt P06401); assay: Radioligand binding, [3H]progesterone, hPR expressed in Sf9
T1 sequence (P06401 679-933 limits assumed): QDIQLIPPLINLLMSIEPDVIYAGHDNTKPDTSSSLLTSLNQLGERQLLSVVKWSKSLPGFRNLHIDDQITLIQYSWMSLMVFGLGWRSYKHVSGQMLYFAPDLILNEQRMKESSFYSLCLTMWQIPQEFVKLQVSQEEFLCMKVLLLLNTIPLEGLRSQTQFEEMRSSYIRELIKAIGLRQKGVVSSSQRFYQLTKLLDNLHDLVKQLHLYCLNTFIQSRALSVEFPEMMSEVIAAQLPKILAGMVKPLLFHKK
Experimental: Full-length human mineralocorticoid receptor (hMR) to be used in radioligand binding was isolated from a human kidney cDNA library (Clontech, Palo Alto, CA). […] The hMR, hPR, and hAR cDNAs were subcloned in the eukaryotic expression vector pcDNA3. Methods for the expression of functionally active hMR, hAR and hPR utilizing the baculovirus expression system were described previously, [31].
Affinity of ligands to the soluble receptor was determined using vacuum filtration methods, preparing soluble receptors in 96-well Falcon polystyrene plates (BD Biosciences, Bedford, MA) in a total volume of 250 μl. […] Binding studies for ligands for hPR and hAR were determined using [1,2,6,7-3H(N)] […] Specific binding of 3H-progesterone for hPR and 3H-mibolerone for hAR was determined in the presence and absence of 1 μM mifepristone. Inhibition constants (Ki), were determined either from the Cheng-Prusoff equation[32], or directly using non-linear regression curve fitting to a three-parameter one-site competitive equation. […] Protein was measured using colorimetric detection and quantification of bicinchoninic acid (BCA Protein Assay, Pierce, Rockford, IL). […] Concentration response curves were analyzed statistically using a four-parameter logistic equation (Hill equation for sigmoid curves). […]

[2] = test system: rats with 5/6 renal ablation (Nx); assay: Protocol 1 (early treatment), 5/6 renal ablation (Nx); format: in vivo, male Munich-Wistar rats
Text: One-hundred forty-five adult male Munich-Wistar rats, obtained from a local facility at the Faculty of Medicine, University of São Paulo, weighing between 220 and 250 g, were used in this study. All experimental procedures were approved by the local Research Ethics Committee (Comissão de Ética para Análise de Projetos de Pesquisa do Hospital das Clínicas da Faculdade de Medicina da Universidade de São Paulo, CAPPesq, process n° 0905/09), and carried out following strictly our institutional guidelines and current international standards for manipulation and care of laboratory animals. Body weights and general conditions were assessed daily. Five-sixths renal ablation (Nx) was performed as a single-step procedure under anesthesia with ketamine 50 mg/kg and xylazine 10 mg/kg im. After ventral laparotomy, the right kidney was excised and two or three branches of the left renal artery were ligated, so as to promote infarction of two-thirds of the left kidney. The operation was invariably well tolerated. Sham-operated rats underwent anesthesia and manipulation of the renal pedicles without removal of renal mass. After surgery, rats received enrofloxacin and, upon recovery, had free access to tap water and regular rodent chow containing 0.5 Na and 22% protein (Nuvital Labs, Curitiba, Brazil), and were kept at 23 ± 1 °C and 60 ± 5% relative air humidity, under an artificial 12–12 hour light/dark cycle. Rats were then treated following two different experimental protocols (described later).
In this first protocol, Nx rats were divided into groups: NX + V (N = 8), receiving vehicle; NX + Eple (N = 8), receiving oral (mixed with the chow) Eple, 150 mg/kg/day; and Nx + Ly (N = 8), receiving oral Ly, 20 mg/kg/day. A group of sham-operated rats (S, N = 7) was also studied. Treatments were started 24 h after surgery. Rats were followed during 60 days, with determination of TCP and UalbV on Days 30 and 60. TCP was assessed with an optoelectronic automated device (Visitech Systems, Apex, NC), after rats had been preconditioned so as to remain calm during the procedure. UalbV was measured with a conventional immunodiffusion technique. On Day 60, rats were anesthetized as described before, and blood was collected from the abdominal aorta for determination of serum creatinine, serum K^+, PRA and PAC. The remnant kidney was then perfusion-fixed with Duboscq-Brazil solution after a brief washout with saline to remove blood from renal vessels, and prepared for histomorphometric and immunohistochemical analyses using conventional sequential techniques.
Histomorphometric analysis was performed blindly by two independent observers. The extent of glomerular injury was estimated, in PAS-stained sections, by determining the percentage of glomeruli with sclerotic lesions. The fraction of the renal cortical area occupied by interstitial tissue (%INT) was estimated in 25 consecutive microscopic fields of Masson-stained sections by a point-counting technique, at a final magnification of 200X, under a 144-point grid.
PRA and PAC were determined using commercially available radioimmunoassay kits (Renin Active IRMA and Aldosterone Active RIA, Beckman Coulter, Carlsbad, CA).

Nx rats = assay: Preliminary experiments to determine the doses of Eple and Ly; format: in vivo
Experimental: Preliminary experiments were performed to exclude the possibility that any differences between Eple and Ly, both in monotherapy and as add-ons to L, were simply due to the use of inadequately low doses of either compound. In the first set of experiments, Nx rats received Eple at the recommended dose of 85 mg/kg, and at 150 mg/kg, higher than in most studies reported so far. […] Other Nx rats received Ly at either 12 mg/kg (the recommended dose) or 20 mg/kg. […] Based on these preliminary results, we set the doses of Eple and Ly at 150 mg/kg and 20 mg/kg, respectively.

[3] = Permeability (data not shown); format: in vitro ADME
[4] = Pharmacokinetics (data not shown)

O=c1[nH]c2ccc(/C=C3\c4ccc(F)cc4COc4cc(F)ccc43)cc2[nH]1 [Ly]
Ki ([1]; hPR expressed in Sf9, [3H]progesterone 0.5 nM, read-out: Mean Ki ± SEM hPR): 92 ± 19 nM
Ratio of Ki's hPR: hMR ([1]; selectivity): 58
Albumin excretion rate (UalbV) ([2]; 60 days after ablation, Eple 150 mg/kg/day, Ly 20 mg/kg/day oral): significantly lower in Ly-treated than in untreated or Eple-treated rats
Fractional cortical interstitial area ([2]; Day 60): significantly diminished
Left kidney weight corrected for body weight (renal hypertrophy) ([2]; Day 60): renal hypertrophy was significantly attenuated
Plasma renin activity (PRA) ([2]; Day 60): markedly increased PRA
PAC relative to sham (S) ([2]; Day 60, higher than in S): over 30 fold
Plasma K+ levels ([2]; Day 60, versus Nx + V): not aggravated
Tail-cuff pressure (TCP) ([2]; Eple 150 mg/kg/day, Ly 20 mg/kg/day oral): More pronounced attenuation of hypertension
Maximal nontoxic dose, defined by stunting of body growth (Nx rats): 20 mg/kg
Dose-response effect on the parameters studied (Nx rats; Ly 12 mg/kg vs 20 mg/kg): A dose-response effect was observed for most parameters
Body growth (Nx rats; Ly 30 mg/kg): severe growth stunting
Permeability [3]: good permeability
Pharmacokinetics properties [4]: good pharmacokinetics properties

Source: PMC5554220, “A Novel Aldosterone Antagonist Limits Renal Injury in 5/6 Nephrectomy” (Scientific Reports, 2017)
